The species named for one assay is Cavia porcellus. Description: Selectivity ratio between CCK-B and CCK-A receptor. Also on record: reference not given here.
Assay [1] concerns the target T1, Cholecystokinin receptor type A (Rattus norvegicus, UniProt P30551).
T1 sequence (P30551 whole entry): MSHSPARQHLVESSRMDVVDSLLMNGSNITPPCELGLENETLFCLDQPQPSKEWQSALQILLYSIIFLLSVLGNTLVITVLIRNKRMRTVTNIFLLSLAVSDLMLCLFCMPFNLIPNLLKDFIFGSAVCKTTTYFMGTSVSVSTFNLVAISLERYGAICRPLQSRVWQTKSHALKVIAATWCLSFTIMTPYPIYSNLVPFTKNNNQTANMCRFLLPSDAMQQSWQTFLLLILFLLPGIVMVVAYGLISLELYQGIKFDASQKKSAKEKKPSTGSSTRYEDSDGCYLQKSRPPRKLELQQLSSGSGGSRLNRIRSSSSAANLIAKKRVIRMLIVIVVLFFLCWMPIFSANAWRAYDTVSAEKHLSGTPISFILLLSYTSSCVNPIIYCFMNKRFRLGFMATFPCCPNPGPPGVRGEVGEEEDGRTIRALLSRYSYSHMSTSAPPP
As to the kind of experiment: Inhibition of binding of [125I]CCK-8 to cholecystokinin type A receptor in rat pancreatic tissue.

Here are results for 22 molecules from ChEMBL document CHEMBL1126970, “Development of 1,4-benzodiazepine cholecystokinin type B antagonists” (J Med Chem, 1993).

Molecules are shown by their SMILES.

Take `Cc1ccc(NC(=O)NC2N=C(c3ccccc3)c3ccccc3N(C)C2=O)cc1C` (centres undefined): the Selectivity ratio in the assay listed under Cavia porcellus amounted to 14. Further, the IC50 – broadly, the concentration needed to halve the response being measured – in assay [1] worked out at 310 nM.
The corresponding values for `CN1C(=O)C(NC(=O)Nc2ccc(C(F)(F)F)cc2)N=C(c2ccccc2)c2ccccc21` (centres undefined) are 228 and 1300 nM.
`CN1C(=O)C(NC(=O)Nc2ccc(N)nc2)N=C(c2ccccc2)c2ccccc21` (centres undefined): the Selectivity ratio in the assay listed under Cavia porcellus was 6. Further, the half-maximal inhibitory concentration (IC50) in assay [1] is 3000 nM.
As to `CN1C(=O)[C@@H](NC(=O)c2ccc(C(F)(F)F)cc2)N=C(c2ccccc2)c2ccccc21`, the Selectivity ratio in the assay filed under Cavia porcellus turned out to be 0.3. Moreover, the IC50 in assay [1] stood at 1300 nM.
Regarding `CN1C(=O)[C@H](NC(=O)Nc2ccccc2Cl)N=C(c2ccccc2)c2ccccc21`, in the assay filed under Cavia porcellus, the Selectivity ratio was 6.7. For the same molecule, the 50% inhibitory concentration (IC50) in assay [1] was 410 nM.
In the same order, the values of `CCOC(=O)CN1C(=O)C(NC(=O)N[C@@H](C)c2ccccc2)N=C(c2ccccc2)c2ccccc21` (mixture of isomers) are under 48 and 4800 nM.
In the same order, the values of `Cc1cccc(NC(=O)NC2N=C(c3ccccc3)c3ccccc3N(CC(=O)ON3CCC[C@@H]3C(=O)O)C2=O)c1` (mixture of isomers) are 15 and 20000 nM.
As to `C[C@H](NC(=O)NC1N=C(c2ccccc2)c2ccccc2N(C)C1=O)c1ccccc1` (mixture of isomers), the Selectivity ratio in the assay listed under Cavia porcellus was 0.04. The IC50 in assay [1] amounted to 430 nM.
The corresponding values for `COC(=O)[C@H]1CCCN1OC(=O)CN1C(=O)C(NC(=O)Nc2cccc(OC)c2)N=C(c2ccccc2)c2ccccc21` (mixture of isomers) are 144 and 1400 nM.
The corresponding values for `Cc1cccc(NC(=O)NC2N=C(c3ccccc3)c3ccccc3N(CCOC(=O)CCC(=O)O)C2=O)c1` (racemic) are 5 and 37 nM.
In the same order, the values of `CN1C(=O)C(NC(N)=O)N=C(c2ccccc2)c2ccccc21` (racemic) are over 0.5 and 55000 nM.
Take `Cc1cccc(NC(=O)NC2N=C(c3ccccc3)c3cccnc3N(C)C2=O)c1` (racemic): the Selectivity ratio in the assay filed under Cavia porcellus is under 0.01. Besides, the half-inhibitory concentration (IC50) in assay [1] came to 104 nM.
The corresponding values for `CN1C(=O)C(NC(=O)Nc2cccc(C(=O)O)c2)N=C(c2ccccc2)c2ccccc21` (racemic) are 1.4 and 14 nM.
Turning to `CCN(CC)C(=O)CN1C(=O)C(NC(=O)Nc2ccccc2Cl)N=C(c2ccccc2)c2ccccc21` (racemic), the Selectivity ratio in the assay listed under Cavia porcellus was 53. The IC50 in assay [1] is 200 nM.
In the same order, the values of `Cc1cccc(NC(=O)NC2N=C(c3ccccc3)c3ccccc3N(CC(=O)O)C2=O)c1` (racemic) are 0.02 and 7.6 nM.
In the case of `Cc1cccc(NC(=O)NC2N=C(c3ccccc3)c3ccccc3N(Cc3n[nH]c(C)n3)C2=O)c1` (racemic), the Selectivity ratio in the assay listed under Cavia porcellus is 58. Also, in assay [1], the 50% inhibitory concentration (IC50) came to 566 nM.
For `CCN(CC)C(=O)CN1C(=O)C(NC(=O)Nc2cccc(OC)c2)N=C(c2ccccc2)c2ccccc21` (racemic), the Selectivity ratio in the assay listed under Cavia porcellus was determined as 545. The same molecule showed an IC50 in assay [1] of 120 nM.
The corresponding values for `COc1cccc(NC(=O)NC2N=C(c3ccccc3)c3ccccc3N(CCN(C)C)C2=O)c1` (racemic) are 16 and 3090 nM.
In the same order, the values of `CN1C(=O)C(NC(=O)Nc2cccnc2)N=C(c2ccccc2)c2ccccc21` (racemic) are 0.4 and 120 nM.
The corresponding values for `CN1C(=O)C(NC(=O)Nc2ccccn2)N=C(c2ccccc2)c2ccccc21` (racemic) are 1.3 and 447 nM.
With `COc1cccc(NC(=O)NC2N=C(c3ccccc3)c3ccccc3N(CC[N+](C)(C)C)C2=O)c1` (racemic), the Selectivity ratio in the assay filed under Cavia porcellus is 15. The molecule also gave a half-maximal inhibitory concentration (IC50) in assay [1] of 17000 nM.
The corresponding values for `Cc1cccc(NC(=O)NC2N=C(c3ccccc3)c3ccccc3N(CC(=O)N3CC[N+](C)(C)CC3)C2=O)c1` (racemic) are 107 and 6200 nM.
